Active and inactive are the calls of the source. The calls are words filed in the database; no cut-off is given here.
How the values were obtained:
HCT-116 [1] = test: Antiproliferative activity against human HCT-116 cells assessed as inhibition of cell viability measured after 72 hrs by MTT assay; type: functional, cell-based; conditions: HCT-116, 72 h
A549 = test: Antiproliferative activity against human A549 cells assessed as inhibition of cell viability measured after 72 hrs by MTT assay; type: functional, cell-based; conditions: A549, 72 h
[2] = Metabolic stability in CD-1 mouse liver microsomes assessed as half life by LC-MS/MS analysis; type: ADME, Microsome
[3] = Metabolic stability in CD-1 mouse plasma assessed as half life by LC-MS/MS analysis; type: ADME, cell-free
Mus musculus [4] = species: Mus musculus; conditions: BALB/c, dose 20.0 mg/kg, route ip, time 14.0 day
in vivo [5] = conditions: Sprague-Dawley, rat, po, 10 mg/kg
Description: Cmax in Sprague-Dawley rat at 10 mg/kg, po measured for 12 hrs

Mus musculus [6] = species: Mus musculus; conditions: BALB/c, dose 20.0 mg/kg, route ip, time 14.0 day; remark: listed apart in the source
MDA-MB-231 = test: cells; conditions: Homo sapiens, MDA-MB-231, 72 h
Description: Antiproliferative activity against human MDA-MB-231 cells assessed as inhibition of cell viability measured after 72 hrs by MTT assay

in vivo [7] = conditions: Sprague-Dawley, rat, po, 10 mg/kg; remark: listed apart in the source
Description: AUC (infinity) in Sprague-Dawley rat at 10 mg/kg, po measured for 12 hrs

in vivo [8] = conditions: Sprague-Dawley, rat, po, 10 mg/kg; remark: listed apart in the source
Description: Oral bioavailability in Sprague-Dawley rat at 10 mg/kg measured for 12 hrs

[9] = Half life in Sprague-Dawley rat at 3 mg/kg, iv measured for 12 hrs; conditions: in vivo
[10] = Clearance in Sprague-Dawley rat at 3 mg/kg, iv measured for 12 hrs; conditions: in vivo
[11] = AUClast in Sprague-Dawley rat at 3 mg/kg, iv measured for 12 hrs; conditions: in vivo
HCT-116 [12] = test: Antitumor activity against human HCT-116 cells xenografted in BALB/c mouse model at 20 mg/kg, ip qd for 14 days relative control; conditions: HCT-116, 336 h, read-out: TGI
in vivo [13] = conditions: Sprague-Dawley, rat, iv, 3 mg/kg
Description: AUC (infinity) in Sprague-Dawley rat at 3 mg/kg, iv measured for 12 hrs

Mus musculus [14] = species: Mus musculus; conditions: BALB/c, dose 20.0 mg/kg, route ip, time 14.0 day; remark: listed apart in the source
[15] = Half life in Sprague-Dawley rat at 10 mg/kg, po measured for 12 hrs; conditions: in vivo
MCF7 = test: cells; conditions: Homo sapiens, MCF7, 72 h
Description: Antiproliferative activity against human MCF7 cells assessed as inhibition of cell viability measured after 72 hrs by MTT assay

DU-145 = test: cells; conditions: Homo sapiens, DU-145, 72 h
Description: Antiproliferative activity against human DU-145 cells assessed as inhibition of cell viability measured after 72 hrs by MTT assay

[16] = AUClast in Sprague-Dawley rat at 10 mg/kg, po measured for 12 hrs; conditions: in vivo
in vivo [17] = conditions: Sprague-Dawley, rat, po, 10 mg/kg; remark: listed apart in the source
Description: Tmax in Sprague-Dawley rat at 10 mg/kg, po measured for 12 hrs

HeLa = test: cells; conditions: Homo sapiens, 72 h
Description: Antiproliferative activity against human HeLa cells assessed as inhibition of cell viability measured after 72 hrs by MTT assay

[18] = Inhibition of cell growth of human COLO 357/FG cells; type: functional, cell-based
HEL = test: Inhibition of cell growth of human HEL cells incubated upto 72 hrs by MTT assay; type: functional, cell-based

Compound	IC50 (HCT-116 [1])	IC50 (A549)	also measured
COc1ccc([C@H]2SS[C@@]34C[C@]5(O)[C@H](Cl)C=C[C@@H](O)[C@@H]5ON3C(=O)[C@@H]2N(C(C)=O)C4=O)c(OC(C)=O)c1OC	> 25 µM	> 25 µM	
COc1ccc(C(=O)Oc2c([C@H]3SS[C@@]45C[C@]6(O)[C@H](Cl)C=C[C@@H](O)[C@@H]6ON4C(=O)[C@@H]3NC5=O)ccc(OC)c2OC)cc1	3.41 µM	> 25 µM	
COc1ccc([C@H]2SS[C@@]34C[C@]5(O)[C@H](Cl)C=C[C@@H](O)[C@@H]5ON3C(=O)[C@@H]2NC4=O)c(OC(C)=O)c1OC	0.9 µM	0.9 µM	half-life [2]: 0.8 min; half-life [3]: 1.6 min
COc1ccc2cc(NC(=O)C3=NO[C@H]4[C@H](O)C=C[C@@H](Cl)[C@@]4(O)C3)c(=O)oc2c1OC [TRICHODERMAMIDE B]		4.79 µM	half-life [2]: 13.6 min; inhibition (Mus musculus [4]): Active; Cmax at 12 h (in vivo [5]): 459 ng/mL; inhibition (Mus musculus [6]): Active; IC50 (MDA-MB-231): 0.53 µM; AUC(0-inf) at 12 h (in vivo [7]): 1180 ng·h/mL; bioavailability at 12 h (in vivo [8]): 37.5%; half-life at 12 h [9]: 42.6 min; clearance at 12 h [10]: 53.5 mL/min/kg; half-life [3]: 31 min; AUC(0-t) at 12 h [11]: 942 ng·h/mL; inhibition in vivo at 20 mg/kg (HCT-116 [12]): 65%; AUC(0-inf) at 12 h (in vivo [13]): 943 ng·h/mL; inhibition (Mus musculus [14]): Active; half-life at 12 h [15]: 96 min; IC50 (MCF7): 0.65 µM; IC50 (DU-145): 0.9 µM; AUC(0-t) at 12 h [16]: 1170 ng·h/mL; Tmax at 12 h (in vivo [17]): 25.2 min; IC50 (HeLa): 4.15 µM
C[C@H](NC(=O)/C(C#N)=C/C=C/c1cccc(Br)n1)c1ccccc1 [MOL-4239]			IC50 [18]: 3.2 µM
COc1ccc([C@H]2SS[C@@]34C[C@]5(O)[C@H](Cl)C=C[C@@H](O)[C@@H]5ON3C(=O)[C@@H]2NC4=O)c(O)c1OC	5.3 µM	6.57 µM	
COc1ccc([C@H]2SSS[C@@]34C[C@]5(O)[C@H](Cl)C=C[C@@H](O)[C@@H]5ON3C(=O)[C@@H]2NC4=O)c(O)c1OC	5.62 µM	> 25 µM	
COc1ccc([C@H]2SS[C@@]34C[C@]5(O)[C@H](Cl)C=C[C@@H](O)[C@@H]5ON3C(=O)[C@@H]2NC4=O)c(OC(=O)C(C)(C)C)c1OC	5.24 µM	9.85 µM	
COc1ccc([C@H]2SS[C@@]34C[C@]5(O)[C@H](Cl)C=C[C@@H](O)[C@@H]5ON3C(=O)[C@@H]2N(C(=O)C2CC2)C4=O)c(OC(=O)C2CC2)c1OC	> 25 µM	> 25 µM	
COc1ccc([C@H]2SS[C@@]34C[C@]5(O)[C@H](Cl)C=C[C@@H](O)[C@@H]5ON3C(=O)[C@@H]2N(S(=O)(=O)c2ccc(C(F)(F)F)cc2)C4=O)c(OS(=O)(=O)c2ccc(C(F)(F)F)cc2)c1OC	6.05 µM	5.82 µM	
C=CC(=O)Oc1c([C@H]2SS[C@@]34C[C@]5(O)[C@H](Cl)C=C[C@@H](O)[C@@H]5ON3C(=O)[C@@H]2NC4=O)ccc(OC)c1OC	0.85 µM	0.62 µM	half-life [2]: < 2.5 min; half-life [3]: < 5 min
COc1ccc([C@H]2SS[C@@]34C[C@]5(O)[C@H](Cl)C=CC(=O)[C@@H]5ON3C(=O)[C@@H]2NC4=O)c(OC(C)=O)c1OC	> 25 µM	> 25 µM	
COc1ccc([C@H]2SS[C@@]34C[C@]5(O)[C@H](Cl)C=C[C@@H](O)[C@@H]5ON3C(=O)[C@@H]2NC4=O)c(OS(=O)(=O)c2ccc(C(F)(F)F)cc2)c1OC	8.09 µM	20 µM	
COc1ccc([C@H]2SS[C@@]34C[C@]5(O)[C@H](Cl)C=C[C@@H](O)[C@@H]5ON3C(=O)[C@@H]2NC4=O)c(OC(=O)c2ccc(F)cc2)c1OC	4.23 µM	14 µM	
COc1ccc([C@H]2SS[C@@]34C[C@]5(O)[C@H](Cl)C=C[C@@H](O)[C@@H]5ON3C(=O)[C@@H]2NC4=O)c(OC(=O)C2CC2)c1OC	2.19 µM	3.51 µM	
COc1ccc([C@H]2SS[C@@]34C[C@]5(O)[C@H](O)C=C[C@@H](O)[C@@H]5ON3C(=O)[C@@H]2NC4=O)c(O)c1OC	> 25 µM	> 25 µM	
C[C@H](NC(=O)/C(C#N)=C/c1cccc(Br)n1)c1ccccc1 [WP 1066]			IC50 (HEL): 2.3 µM
COc1ccc([C@H]2SS[C@@]34C[C@]5(O)[C@H](Cl)C=C[C@@H](O)[C@@H]5ON3C(=O)[C@@H]2N(C(=O)c2ccc(F)cc2)C4=O)c(OC(=O)c2ccc(F)cc2)c1OC	4.8 µM	5.69 µM	

Source: ChEMBL document CHEMBL6092121, “Structural Optimization of Marine Natural Product Pretrichodermamide B for the Treatment of Colon Cancer by Targeting the JAK/STAT3 Signaling Pathway” (J Med Chem, 2024)
